According to ChEMBL document CHEMBL1141099, “Discovery of N-(2,6-dimethylphenyl)-substituted semicarbazones as anticonvulsants: hybrid pharmacophore-based design” (2005):

Columns and labels:
[1] = tested on: Mus musculus; experiment: Mean sleeping time evaluated for CNS study using the pentobarbital-induced narcosis model at a dose of 100 mg/Kg when given i.p., in mice (No. of animals 6)
[2] = tested on: Rattus norvegicus; experiment: Number of rats protected at a dose of 30 mg/Kg when given oral at 2 hr upon maximal electroshock seizure; Total number of rats = 4; assay type: functional
[3] = tested on: Mus musculus; experiment: Post treatment activity score for CNS study using a actophotometer at a dose of 100 mg/Kg after 1 h when given i.p., in mice (No. of animals 6); Control (24h before) 238
[4] = tested on: Rattus norvegicus; experiment: Number of rats protected at a dose of 30 mg/Kg when given oral at 0.25 hr upon maximal electroshock seizure; Total number of rats = 4; assay type: functional
[5] = tested on: Rattus norvegicus; experiment: Effective dose required for anticonvulsant activity when given i.p., at 1 hr in rat upon maximal electroshock seizure; assay type: functional; conditions: ip
[6] = tested on: Mus musculus; experiment: Minimum dose required for anticonvulsant activity when given i.p., at 2 hr in mice upon subcutaneous strychnine seizure; assay type: functional
[7] = tested on: Mus musculus; experiment: Minimum dose required for anticonvulsant activity when given i.p., at 0.5 hr in mice upon subcutaneous strychnine seizure; assay type: functional
[8] = organism: Rattus norvegicus; experiment: Protective index between effective dose and toxic dose in rat; assay type: functional
[9] = biological target: 4-aminobutyrate aminotransferase, mitochondrial (Rattus norvegicus) (UniProt P50554); experiment: In vitro percentage inhibition activity against GABA-T enzyme at a concentration of 5 uM after 4.5 h
Sequence of 4-aminobutyrate aminotransferase, mitochondrial (Rattus norvegicus) (P50554 28-500 limits assumed): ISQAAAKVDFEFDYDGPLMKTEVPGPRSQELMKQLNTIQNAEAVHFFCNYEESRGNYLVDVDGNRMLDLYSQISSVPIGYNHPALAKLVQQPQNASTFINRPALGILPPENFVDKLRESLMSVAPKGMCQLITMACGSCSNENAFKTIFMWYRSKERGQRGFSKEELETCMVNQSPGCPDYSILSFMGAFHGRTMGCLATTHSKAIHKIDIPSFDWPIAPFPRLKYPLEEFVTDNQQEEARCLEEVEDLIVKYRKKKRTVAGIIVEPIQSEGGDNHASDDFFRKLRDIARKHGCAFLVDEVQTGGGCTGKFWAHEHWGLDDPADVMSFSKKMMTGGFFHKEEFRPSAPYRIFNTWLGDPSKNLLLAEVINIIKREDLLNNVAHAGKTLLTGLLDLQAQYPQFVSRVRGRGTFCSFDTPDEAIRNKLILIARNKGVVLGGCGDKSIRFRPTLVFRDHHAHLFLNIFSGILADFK

[10] = organism: Rattus norvegicus; experiment: Ex vitro percentage inhibition activity against GABA-T enzyme at a concentration of 2.5 uM after 3 h; assay type: functional
[11] = tested on: Rattus norvegicus; experiment: Number of rats protected at a dose of 30 mg/Kg when given oral at 1 hr upon maximal electroshock seizure; Total number of rats = 4; assay type: functional
[12] = tested on: Rattus norvegicus; experiment: Number of rats protected at a dose of 30 mg/Kg when given oral at 4 hr upon maximal electroshock seizure; Total number of rats = 4; assay type: functional
[13] = organism: Rattus norvegicus; experiment: Ex vitro percentage inhibition activity against GABA-T enzyme at a concentration of 2.5 uM after 6 h; assay type: functional
[14] = tested on: Rattus norvegicus; experiment: Toxic dose observed for anticonvulsant activity when given i.p., at 1 h in rat upon neurotoxicity seizure; assay type: functional; conditions: ip
[15] = tested on: Rattus norvegicus; experiment: Effect on GABA level in rat whole brain concentration after 7 days post-treatment at a dose of 30 mg/Kg when given orally; Control 50.5; assay type: functional
[16] = tested on: Mus musculus; experiment: Minimum dose required for anticonvulsant activity when given i.p., at 0.5 hr in mice upon subcutaneous pentylenetetrazole seizure; assay type: functional
[17] = organism: Rattus norvegicus; experiment: Ex vitro percentage inhibition activity against GABA-T enzyme at a concentration of 2.5 uM after 4.5 h; assay type: functional
[18] = biological target: 4-aminobutyrate aminotransferase, mitochondrial (Rattus norvegicus) (UniProt P50554); experiment: In vitro percentage inhibition activity against GABA-T enzyme at a concentration of 5 uM after 6 h
[19] = tested on: Mus musculus; experiment: Minimum dose required for anticonvulsant activity when given i.p., at 4 hr in mice upon maximal electroshock seizure; assay type: functional
[20] = biological target: 4-aminobutyrate aminotransferase, mitochondrial (Rattus norvegicus) (UniProt P50554); experiment: In vitro percentage inhibition activity against GABA-T enzyme at a concentration of 5 uM after 3 h
[21] = tested on: Rattus norvegicus; experiment: Effect on GABA level in rat whole brain concentration after 2 hr post-treatment at a dose of 100 mg/Kg when given i.p.; Control 48.4; assay type: functional
[22] = tested on: Rattus norvegicus; experiment: Number of rats protected at a dose of 30 mg/Kg when given oral at 0.5 hr upon maximal electroshock seizure; Total number of rats = 4; assay type: functional
[23] = tested on: Mus musculus; experiment: Post treatment activity score for CNS study using a actophotometer at a dose of 100 mg/Kg after 0.5 hr when given i.p., in mice (No. of animals 6); Control (24h before) 238
[24] = tested on: Mus musculus; experiment: Minimum dose required for anticonvulsant activity when given i.p., at 0.5 hr in mice upon maximal electroshock seizure; assay type: functional
[25] = tested on: Mus musculus; experiment: Post treatment immobility time for CNS study using Porsolt's swimpool test at a dose of 100 mg/Kg after 1 hr when given i.p., in mice (No. of animals 6); Control (24h before) 143
[26] = tested on: Mus musculus; experiment: Post treatment activity score for CNS study using a actophotometer at a dose of 100 mg/Kg after 0.5 hr when given i.p., in mice (No. of animals 6); Control (24h before) 224
[27] = tested on: Mus musculus; experiment: Post treatment activity score for CNS study using a actophotometer at a dose of 100 mg/Kg after 1 hr when given i.p., in mice (No. of animals 6); Control (24h before) 224
[28] = tested on: Mus musculus; experiment: Minimum dose required for anticonvulsant activity when given i.p., at 0.5 hr in mice upon neurotoxicity seizure using rotarod test; assay type: functional
[29] = tested on: Rattus norvegicus; experiment: Effective dose required for anticonvulsant activity when given i.p., at 2 hr in rat upon maximal electroshock seizure; assay type: functional; conditions: ip
[30] = biological target: 4-aminobutyrate aminotransferase, mitochondrial (Rattus norvegicus) (UniProt P50554); experiment: In vitro percentage inhibition activity against GABA-T enzyme at a concentration of 0.625 uM after 3 h
[31] = organism: Rattus norvegicus; experiment: Ex vitro percentage inhibition activity against GABA-T enzyme at a concentration of 1.25 uM after 4.5 h; assay type: functional
[32] = tested on: Mus musculus; experiment: Post treatment immobility time for CNS study using Porsolt's swimpool test at a dose of 100 mg/Kg after 1 hr when given i.p., in mice (No. of animals 6); Control (24h before) 182
[33] = organism: Rattus norvegicus; experiment: Ex vitro percentage inhibition activity against GABA-T enzyme at a concentration of 1.25 uM after 3 h; assay type: functional
[34] = biological target: 4-aminobutyrate aminotransferase, mitochondrial (Rattus norvegicus) (UniProt P50554); experiment: In vitro percentage inhibition activity against GABA-T enzyme at a concentration of 0.625 uM after 4.5 h
[35] = biological target: 4-aminobutyrate aminotransferase, mitochondrial (Rattus norvegicus) (UniProt P50554); experiment: In vitro percentage inhibition activity against GABA-T enzyme at a concentration of 0.625 uM after 6 h
[36] = tested on: Mus musculus; experiment: Post treatment activity score for CNS study using a actophotometer at a dose of 100 mg/Kg after 1 hr when given i.p., in mice (No. of animals 6); Control (24h before) 245
[37] = tested on: Rattus norvegicus; experiment: Toxic dose observed for anticonvulsant activity when given i.p., at 2 hr in rat upon neurotoxicity seizure; assay type: functional; conditions: ip
[38] = organism: Rattus norvegicus; experiment: Ex vitro percentage inhibition activity against GABA-T enzyme at a concentration of 1.25 uM after 6 h; assay type: functional
[39] = tested on: Mus musculus; experiment: Post treatment activity score for CNS study using a actophotometer at a dose of 100 mg/Kg after 0.5 hr when given i.p., in mice (No. of animals 6); Control (24h before) 245
[40] = tested on: Mus musculus; experiment: Post treatment activity score for CNS study using a actophotometer at a dose of 100 mg/Kg after 1 hr when given i.p., in mice (No. of animals 6); Control (24h before) 268
[41] = tested on: Mus musculus; experiment: Post treatment immobility time for CNS study using Porsolt's swimpool test at a dose of 100 mg/Kg after 1 hr when given i.p., in mice (No. of animals 6); Control (24h before) 146
[42] = tested on: Rattus norvegicus; experiment: Enzymatic activity to assess the increase in level of SGOT at a dose of 30 mg/Kg for 14 days when given p.o., in 6 rats; Control 73.1; assay type: functional
[43] = tested on: Rattus norvegicus; experiment: Toxic dose observed for anticonvulsant activity when given orally at 2 hr in rat upon neurotoxicity seizure; assay type: functional; conditions: po
[44] = tested on: Mus musculus; experiment: Post treatment activity score for CNS study using a actophotometer at a dose of 100 mg/Kg after 0.5 hr when given i.p., in mice (No. of animals 6); Control (24h before) 268
[45] = tested on: Rattus norvegicus; experiment: Effective dose required for anticonvulsant activity when given orally at 2 h in rat upon maximal electroshock seizure; assay type: functional; conditions: po
[46] = tested on: Rattus norvegicus; experiment: Enzymatic activity to assess the increase in level of SGPT at a dose of 30 mg/Kg for 14 days when given p.o., in 6 rats; Control 45.0; assay type: functional

Structure (SMILES) | Time [1] [min] | Activity [2] | Activity [4] | STY seizure [6] [mg/kg] | STY seizure [7] [mg/kg] | PI [8] | inhibition [9] [%] | Activity [11] | Activity [12] | Activity [15] | PTZ seizure [16] [mg/kg] | inhibition [18] [%] | MES [19] [mg/kg] | inhibition [20] [%] | Activity [21] | Activity [22] | MES [24] [mg/kg] | NT [28] [mg/kg] | Inhibition [31] [%] | Inhibition [33] [%] | further results
COc1cc(/C=N/NC(=O)Nc2c(C)cccc2C)ccc1O | 68 | 3 | 3 | 100 | 30 | >4.4 | 56 | 4 | 4 | 106 ug/100mg of tissue | 300 | 23 | 300 | 0 | 91.2 ug/100mg of tissue | 3 | 100 | – | – | – | Activity [3]: 130; ED50 [5]: 26.2 mg/kg; Inhibition [10]: 0%; Inhibition [13]: 12%; TD50 [14]: > 117 mg/kg; Inhibition [17]: 56%; Activity [23]: 157; Activity [25]: 207
Cc1cccc(C)c1NC(=O)/N=N/c1c(O)[nH]c2ccc(F)cc12 | – | 1 | 1 | 100 | 30 | – | – | 1 | 3 | – | 300 | – | 300 | – | – | 1 | 100 | 300 | – | – | Activity [26]: 204; Activity [27]: 194
Cc1cccc(C)c1NC(=O)N/N=C/c1ccc(N(C)C)cc1 | – | 3 | 1 | 100 | 100 | >13.6 | – | 2 | 4 | 68.1 ug/100mg of tissue | 300 | – | 300 | – | 75.5 ug/100mg of tissue | 2 | 100 | 300 | 0 | 0 | ED50 [29]: 18.3 mg/kg; inhibition [30]: 0%; Activity [32]: 207; inhibition [34]: 64%; inhibition [35]: 0%; Activity [36]: 124; TD50 [37]: > 250 mg/kg; Inhibition [38]: 9%; Activity [39]: 147
Cc1ccc(/C=N/NC(=O)Nc2c(C)cccc2C)cc1 | 150 | 4 | 0 | 100 | 100 | >3.62 | 70 | 3 | 3 | 100 ug/100mg of tissue | 300 | 0 | 300 | 55 | 90.2 ug/100mg of tissue | 2 | 100 | – | 75 | 32 | Activity [40]: 133; Activity [41]: 225; SGOT activity [42]: 70.2 units/mL; TD50 [43]: > 120 mg/kg; Activity [44]: 175; ED50 [45]: 33.1 mg/kg; Inhibition [38]: 48%; SGPT activity [46]: 47.3 units/mL
